Experimental data taken from patent publication EP0284935A1, “5-Substituted quinolone- and naphthyridone carboxylic acid derivatives” (BAYER AG, priority 1987, dated 1988).
≈ marks a conversion by molar mass, not a printed value.

What was measured:
Assay in all cases: Agar dilution test, minimum inhibitory concentration
Type in all cases: cell-based
Morg. morg. 11006 = conditions: test strain Morg. morg. 11006; Isosensitest-Agar (Oxoid), inoculum ca. 10^4 germs per inoculation point; read-out: Minimale Hemmkonzentrationen
E.coli A261 = conditions: Escherichia coli; test strain E.coli A261; Isosensitest-Agar (Oxoid), inoculum ca. 10^4 germs per inoculation point; read-out: Minimale Hemmkonzentrationen
Klebsiella 63 = conditions: test strain Klebsiella 63; Isosensitest-Agar (Oxoid), inoculum ca. 10^4 germs per inoculation point; read-out: Minimale Hemmkonzentrationen
Enteroc. 27101 = conditions: test strain Enteroc. 27101; Isosensitest-Agar (Oxoid), inoculum ca. 10^4 germs per inoculation point; read-out: Minimale Hemmkonzentrationen
Morg. morg. 932 = conditions: test strain Morg. morg. 932; Isosensitest-Agar (Oxoid), inoculum ca. 10^4 germs per inoculation point; read-out: Minimale Hemmkonzentrationen
Staph. FK 422 = conditions: test strain Staph. FK 422; Isosensitest-Agar (Oxoid), inoculum ca. 10^4 germs per inoculation point; read-out: Minimale Hemmkonzentrationen
Pseudomonas Ellsworth = conditions: test strain Pseudomonas Ellsworth; Isosensitest-Agar (Oxoid), inoculum ca. 10^4 germs per inoculation point; read-out: Minimale Hemmkonzentrationen
Staph. 1756 = conditions: test strain Staph. 1756; Isosensitest-Agar (Oxoid), inoculum ca. 10^4 germs per inoculation point; read-out: Minimale Hemmkonzentrationen
Klebsiella 8085 = conditions: test strain Klebsiella 8085; Isosensitest-Agar (Oxoid), inoculum ca. 10^4 germs per inoculation point; read-out: Minimale Hemmkonzentrationen
E.coli Neumann = conditions: Escherichia coli; test strain E.coli Neumann; Isosensitest-Agar (Oxoid), inoculum ca. 10^4 germs per inoculation point; read-out: Minimale Hemmkonzentrationen
Pseudomonas Walter = conditions: test strain Pseudomonas Walter; Isosensitest-Agar (Oxoid), inoculum ca. 10^4 germs per inoculation point; read-out: Minimale Hemmkonzentrationen
Providencia 12012 = conditions: test strain Providencia 12012; Isosensitest-Agar (Oxoid), inoculum ca. 10^4 germs per inoculation point; read-out: Minimale Hemmkonzentrationen
Proteus vulg. 1017 = conditions: test strain Proteus vulg. 1017; Isosensitest-Agar (Oxoid), inoculum ca. 10^4 germs per inoculation point; read-out: Minimale Hemmkonzentrationen
Serratia 16040 = conditions: test strain Serratia 16040; Isosensitest-Agar (Oxoid), inoculum ca. 10^4 germs per inoculation point; read-out: Minimale Hemmkonzentrationen
Enteroc. 9790 = conditions: test strain Enteroc. 9790; Isosensitest-Agar (Oxoid), inoculum ca. 10^4 germs per inoculation point; read-out: Minimale Hemmkonzentrationen
E.coli 455/7 = conditions: Escherichia coli; test strain E.coli 455/7; Isosensitest-Agar (Oxoid), inoculum ca. 10^4 germs per inoculation point; read-out: Minimale Hemmkonzentrationen
Staph. 133 = conditions: test strain Staph. 133; Isosensitest-Agar (Oxoid), inoculum ca. 10^4 germs per inoculation point; read-out: Minimale Hemmkonzentrationen
Providencia 12052 = conditions: test strain Providencia 12052; Isosensitest-Agar (Oxoid), inoculum ca. 10^4 germs per inoculation point; read-out: Minimale Hemmkonzentrationen
Proteus mir. 8223 = conditions: test strain Proteus mir. 8223; Isosensitest-Agar (Oxoid), inoculum ca. 10^4 germs per inoculation point; read-out: Minimale Hemmkonzentrationen

CN1CCN(c2c(F)c(N)c3c(=O)c(C(=O)O)cn(C4CC4)c3c2F)CC1 [Beispiel 19, 5-Amino-1-cyclopropyl-6,8-difluor-1,4-dihydro-7-(4-methyl-1-piperanyl)-4-oxo-3-chinolincarbonsäure] showed an MIC (Morg. morg. 11006) of 0.06 µg/mL (≈ 0.159 µM), an MIC (E.coli A261) of 0.25 µg/mL (≈ 0.661 µM) and an MIC (Klebsiella 63) of 0.03 µg/mL (≈ 0.0793 µM). It also gave an MIC (Enteroc. 27101) of 0.25 µg/mL (≈ 0.661 µM), an MIC (Morg. morg. 932) of 0.03 µg/mL (≈ 0.0793 µM) and an MIC (Staph. FK 422) of 0.03 µg/mL (≈ 0.0793 µM). For the same compound, the MIC (Pseudomonas Ellsworth) was 0.06 µg/mL (≈ 0.159 µM), the MIC (Staph. 1756) was 0.06 µg/mL (≈ 0.159 µM) and the MIC (Klebsiella 8085) was 0.03 µg/mL (≈ 0.0793 µM). It also gave an MIC (E.coli Neumann) of 0.03 µg/mL (≈ 0.0793 µM), an MIC (Pseudomonas Walter) of 0.5 µg/mL (≈ 1.32 µM) and an MIC (Providencia 12012) of 0.06 µg/mL (≈ 0.159 µM). It also gave an MIC (Proteus vulg. 1017) of 0.06 µg/mL (≈ 0.159 µM), an MIC (Serratia 16040) of 4 µg/mL (≈ 10.6 µM) and an MIC (Enteroc. 9790) of 0.25 µg/mL (≈ 0.661 µM). The MIC (E.coli 455/7) was 1 µg/mL (≈ 2.64 µM), the MIC (Staph. 133) was 0.06 µg/mL (≈ 0.159 µM) and the MIC (Providencia 12052) was 1 µg/mL (≈ 2.64 µM). It also gave an MIC (Proteus mir. 8223) of 0.25 µg/mL (≈ 0.661 µM).
